Source: ChEMBL document CHEMBL5537164, “Discovery of Potent, Orally Bioavailable, Tricyclic NLRP3 Inhibitors” (J Med Chem, 2024)
Converted amounts (≈) assume the structure as drawn.

Legend:
[1] = molecular target: Nuclear factor NF-kappa-B complex (Homo sapiens, UniProt P19838+Q00653+Q04206); assay: Inhibition of NF-kappaB in PMA-differentiated human THP-1 cells assessed as reduction in TNF-alpha release preincubated with compound for 1 hrs followed by Pam3CSK4 stimulation and measured after 3 hrs by HTRF assay; type: cell-based
Nuclear factor NF-kappa-B complex, sequence (P19838 1-433 limits assumed): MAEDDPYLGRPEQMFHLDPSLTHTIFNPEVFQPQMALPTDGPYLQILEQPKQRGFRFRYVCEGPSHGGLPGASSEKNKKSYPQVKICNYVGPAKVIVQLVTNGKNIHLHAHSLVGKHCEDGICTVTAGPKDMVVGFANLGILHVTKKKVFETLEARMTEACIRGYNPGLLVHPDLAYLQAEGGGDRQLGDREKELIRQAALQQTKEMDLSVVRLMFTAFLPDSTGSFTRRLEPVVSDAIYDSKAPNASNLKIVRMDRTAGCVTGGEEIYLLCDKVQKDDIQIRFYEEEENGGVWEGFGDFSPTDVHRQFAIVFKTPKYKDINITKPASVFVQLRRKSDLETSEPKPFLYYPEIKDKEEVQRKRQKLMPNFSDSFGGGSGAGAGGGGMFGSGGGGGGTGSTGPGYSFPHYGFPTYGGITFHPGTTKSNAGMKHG
Nuclear factor NF-kappa-B complex, sequence (Q00653 1-454 limits assumed): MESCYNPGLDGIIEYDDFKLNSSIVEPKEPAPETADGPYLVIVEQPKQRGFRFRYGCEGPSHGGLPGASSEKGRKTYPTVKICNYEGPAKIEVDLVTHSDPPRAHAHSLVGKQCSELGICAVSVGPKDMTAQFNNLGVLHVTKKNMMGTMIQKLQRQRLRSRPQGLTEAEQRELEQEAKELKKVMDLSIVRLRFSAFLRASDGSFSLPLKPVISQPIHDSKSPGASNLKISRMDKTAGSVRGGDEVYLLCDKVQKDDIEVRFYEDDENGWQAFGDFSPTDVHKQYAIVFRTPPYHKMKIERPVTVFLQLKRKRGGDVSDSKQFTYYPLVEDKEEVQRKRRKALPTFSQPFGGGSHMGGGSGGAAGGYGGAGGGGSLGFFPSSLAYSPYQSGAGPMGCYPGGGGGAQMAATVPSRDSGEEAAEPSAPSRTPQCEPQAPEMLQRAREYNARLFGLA
Nuclear factor NF-kappa-B complex, sequence (Q04206 whole entry): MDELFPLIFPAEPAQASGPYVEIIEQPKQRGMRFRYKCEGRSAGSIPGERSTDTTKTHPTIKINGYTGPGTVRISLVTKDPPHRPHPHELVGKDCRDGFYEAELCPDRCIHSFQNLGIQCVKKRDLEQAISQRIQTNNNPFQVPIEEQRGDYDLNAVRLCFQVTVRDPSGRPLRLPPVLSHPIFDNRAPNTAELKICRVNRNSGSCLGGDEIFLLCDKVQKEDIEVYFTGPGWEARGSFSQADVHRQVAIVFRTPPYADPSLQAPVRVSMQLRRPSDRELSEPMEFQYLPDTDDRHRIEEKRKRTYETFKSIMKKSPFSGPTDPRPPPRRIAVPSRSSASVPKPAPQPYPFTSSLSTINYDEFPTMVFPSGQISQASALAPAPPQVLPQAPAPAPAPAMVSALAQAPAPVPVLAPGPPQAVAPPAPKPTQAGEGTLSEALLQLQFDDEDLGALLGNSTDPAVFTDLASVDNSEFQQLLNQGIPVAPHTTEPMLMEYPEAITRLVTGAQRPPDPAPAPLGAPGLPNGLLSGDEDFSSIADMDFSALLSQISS

[2] = Apparent permeability from apical to basolateral side in MDCK cells by high-throughput assay; type: ADME, cell-based, Canis lupus familiaris; conditions: dog
[3] = Equilibrium solubility of compound in DMSO at pH 6.8 by shake flask method; type: physicochemical
[4] = Metabolic stability in human liver microsomes assessed as intrinsic clearance; type: ADME, Microsome; conditions: read-out: CLH
[5] = Metabolic stability in mouse liver microsomes assessed as intrinsic clearance; type: ADME, Microsome; conditions: read-out: CLH
[6] = Lipophilicity, logD of compound at pH 7.4; type: physicochemical; conditions: buffer
[7] = AUC (0 to infinity) in C57BL/6 mouse at 3 mg/kg, po measured after 24 hrs by LC-MS/MS analysis; type: ADME, organism-based; conditions: in vivo
[8] = Clearance in C57BL/6 mouse at 1 mg/kg, iv measured after 24 hrs by LC-MS/MS analysis; type: ADME, organism-based; conditions: in vivo
[9] = Oral bioavailability in C57BL/6 mouse measured after 24 hrs by LC-MS/MS analysis; type: ADME, organism-based; conditions: in vivo
[10] = molecular target: Voltage-gated inwardly rectifying potassium channel KCNH2 (Homo sapiens, UniProt Q12809); assay: Displacement of [3H]-dofetilide from human ERG; type: toxicity
Voltage-gated inwardly rectifying potassium channel KCNH2, sequence (Q12809 whole entry): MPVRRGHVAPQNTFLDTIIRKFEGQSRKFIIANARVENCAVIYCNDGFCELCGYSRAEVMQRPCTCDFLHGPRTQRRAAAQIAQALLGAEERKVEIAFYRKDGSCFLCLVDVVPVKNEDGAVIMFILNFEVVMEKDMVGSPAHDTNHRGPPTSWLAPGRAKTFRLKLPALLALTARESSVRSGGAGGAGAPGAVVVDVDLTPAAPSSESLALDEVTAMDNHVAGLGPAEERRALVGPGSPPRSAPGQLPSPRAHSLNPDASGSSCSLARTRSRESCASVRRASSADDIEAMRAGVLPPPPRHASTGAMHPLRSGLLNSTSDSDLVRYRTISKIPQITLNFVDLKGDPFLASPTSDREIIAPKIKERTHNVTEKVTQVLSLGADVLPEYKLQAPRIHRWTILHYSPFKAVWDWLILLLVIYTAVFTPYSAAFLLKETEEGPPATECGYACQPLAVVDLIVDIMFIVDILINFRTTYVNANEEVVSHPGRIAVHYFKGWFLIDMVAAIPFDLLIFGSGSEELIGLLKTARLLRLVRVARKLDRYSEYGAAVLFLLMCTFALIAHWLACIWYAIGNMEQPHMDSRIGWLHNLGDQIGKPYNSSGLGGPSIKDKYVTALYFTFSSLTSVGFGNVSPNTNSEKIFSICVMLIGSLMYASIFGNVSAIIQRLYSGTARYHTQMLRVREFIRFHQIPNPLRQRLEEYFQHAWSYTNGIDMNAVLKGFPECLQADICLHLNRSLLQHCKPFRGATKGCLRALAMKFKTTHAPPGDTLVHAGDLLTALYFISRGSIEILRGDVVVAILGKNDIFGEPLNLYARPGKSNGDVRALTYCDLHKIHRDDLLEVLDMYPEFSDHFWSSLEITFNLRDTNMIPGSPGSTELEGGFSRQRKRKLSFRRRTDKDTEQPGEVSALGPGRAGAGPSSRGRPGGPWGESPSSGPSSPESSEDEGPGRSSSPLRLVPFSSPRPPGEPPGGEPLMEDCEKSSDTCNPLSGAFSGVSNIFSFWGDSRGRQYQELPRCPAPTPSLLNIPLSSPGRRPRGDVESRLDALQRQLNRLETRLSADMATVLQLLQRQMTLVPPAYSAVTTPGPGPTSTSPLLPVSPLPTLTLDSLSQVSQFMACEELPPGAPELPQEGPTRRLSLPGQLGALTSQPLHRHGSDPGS

[11] = tested on: Cytochrome P450; assay: Drug metabolism in human liver microsomes assessed as CYP450-driven thiophene oxidation mediated metabolite formation by LC-MS/MS analysis; type: ADME, Microsome
[12] = Drug concentration in blood of C57BL/6 mouse model of acute peritonitis at 50 mg/kg, po preadministered with compound for 1 hrs followed by LPS stimulation for 2 hrs and measured 15 mins after ATP addition by HPLC-MS/MS analysis; type: ADME, organism-based; conditions: whole blood, read-out: Ct
[13] = In vivo inhibition of NLRP3 in LPS/ATP-induced C57BL/6 mouse model of acute peritonitis assessed as reduction in IL-1beta level at 50 mg/kg, po preadministered with compound for 1 hrs followed by LPS stimulation for 2 hrs and measured 15 mins after ATP addition by ELISA relative to control; type: functional; conditions: time 3.25 hrs
[14] = Metabolic stability in rat liver microsomes assessed as intrinsic clearance; type: ADME, Microsome; conditions: read-out: CLH

| Compound | Papp A→B [2] [nm/s] | solubility [3] [µM] | microsomal CLint [4] [µL/min/mg] | microsomal CLint [5] [µL/min/mg] | logD [6] | other results |
| --- | --- | --- | --- | --- | --- | --- |
| CCc1nn(CC(=O)Nc2cccc(C(C)=O)c2)c(=O)c2cc3sccc3n12 | 410 | 4 (≈ 1.58 µg/mL) | 299 |  |  | IC50 [1]: > 100 µM |
| CCc1nn(CC(=O)N(C)c2ccccc2)c(=O)c2cc3sccc3n12 | 190 | 6 (≈ 2.2 µg/mL) | 971 |  |  |  |
| CC(C)c1nn(CC(=O)NC2CCOCC2)c(=O)c2cc3sc(Cl)cc3n12 |  | 3 (≈ 1.23 µg/mL) | 30 | 129 | 3 |  |
| O=C(Cn1nc(C2CC2)n2c(cc3sccc32)c1=O)Nc1cccnc1 |  | 26 (≈ 9.5 µg/mL) | 76 | 464 | 2.7 |  |
| CC(C)c1nn(CC(=O)Nc2cccnc2)c(=O)c2cc3sc(Cl)cc3n12 |  | 10 (≈ 4.02 µg/mL) | 44 | 124 | 4 | AUC(0-inf) [7]: 3750 nM·h; clearance [8]: 0.99 L/h/kg; bioavailability [9]: 55% |
| CC(C)c1nn(CC(=O)Nc2cccnc2)c(=O)c2cc3sc(F)cc3n12 |  | 251 (≈ 96.7 µg/mL) | 79 | 227 | 3.4 |  |
| CC(C)c1nn(CC(=O)N[C@@H]2CCCN(C)C2)c(=O)c2cc3sc(Cl)cc3n12 | 150 | > 1000 | 59 | 364 | 2.4 | IC50 [10]: > 30 µM; AUC(0-inf) [7]: 163 nM·h; clearance [8]: 3.48 L/h/kg; bioavailability [9]: 7.8% |
| CCc1nn(CC(=O)Nc2cccnc2)c(=O)c2cc3sccc3n12 | 270 | 21 (≈ 7.42 µg/mL) | 63 | 412 | 2.6 |  |
| CC(C)c1nn(CC(=O)Nc2cccnc2)c(=O)c2cc3sccc3n12 |  | 19 (≈ 6.98 µg/mL) | 144 | 490 | 3.1 | Drug metabolism [11]: Metabolite_Detected |
| CCCc1nn(CC(=O)Nc2cccnc2)c(=O)c2cc3sccc3n12 |  | 3 (≈ 1.1 µg/mL) | 101 | > 1000 | 3 |  |
| CC(C)c1nn(CC(=O)N[C@@H]2CCCNC2)c(=O)c2cc3sc(Cl)cc3n12 | 30 | > 1000 | 12 | 55 | 1 | IC50 [10]: 26 µM; AUC(0-inf) [7]: 691 nM·h; clearance [8]: 3.34 L/h/kg; bioavailability [9]: 27.6% |
| CCc1nn(CC(=O)Nc2ccccc2)c(=O)c2cc3sccc3n12 | 250 | 2 (≈ 0.705 µg/mL) | 269 |  |  |  |
| CC(C)(O)c1nn(CC(=O)Nc2cccnc2)c(=O)c2cc3sccc3n12 |  | 23 (≈ 8.82 µg/mL) | 68 | 300 | 2.8 |  |
| CC(C)c1nn(CC(=O)N[C@@H]2CCCN(C)C2)c(=O)c2cc3scnc3n12 |  | > 1000 | 27 | 231 | 1.1 | concentration at 3.25 h [12]: 0.113 µM; inhibition in vivo at 50 mg/kg [13]: 40% |
| CCc1nn(CC(=O)Nc2cccc(O)c2)c(=O)c2cc3sccc3n12 | 57 | 4 (≈ 1.47 µg/mL) | 405 |  |  |  |
| CCc1nn(CC(=O)NC2CCCNC2)c(=O)c2cc3sccc3n12 (stereo unspecified) | 7 | > 1000 | < 10 | 50 | -0.2 | microsomal CLint [14]: 40 µL/min/mg |
| CCc1nn(CC(=O)Nc2ccncn2)c(=O)c2cc3sccc3n12 | 210 | 7 (≈ 2.48 µg/mL) | 69 |  |  |  |
| CC(C)(O)c1nn(CC(=O)N[C@H]2C[C@@](C)(O)C2)c(=O)c2cc3sc(Cl)cc3n12 |  | 36 (≈ 15.3 µg/mL) | < 10 | 33 | 2.8 | concentration at 3.25 h [12]: 0.065 µM; inhibition in vivo at 50 mg/kg [13]: 30% |
| CCc1nn(CC(=O)NC)c(=O)c2cc3sccc3n12 | 260 | 128 (≈ 37.2 µg/mL) | 54 |  |  |  |
| O=C(Cn1ncn2c(cc3sccc32)c1=O)Nc1cccnc1 |  | 91 (≈ 29.6 µg/mL) | < 10 | 48 | 1.9 |  |
